The values below come from patent US9975888B2, “Aryl linked imidazole and triazole derivatives and methods of use thereof for improving the pharmacokinetics of a drug” (MERCK SHARP & DOHME CORP., priority 2013, dated 2018).

Holding throughout (type): biochemical
For one assay, the target named is T1, CYP2C19 (Homo sapiens, UniProt P33261).
T1 construct: 0.1 mg/mL protein human liver microsomes (BD Gentest); tissue BD Gentest; host or cells: human liver microsomes
Description: Cocktail assay for CYPs, mephenytoin 4′-hydroxylation (CYP2C19), human liver microsomes. The following applies: 30 μM mephenytoin, 0.1 mg/mL human liver microsomes, 10 min at 37° C.; read-out: CYP IC50 (nM) 2C19. How it is done:
(§1) Determination of IC50 in a Cocktail Assay for CYPs 1A2, 2C9, 2C19, 2D6 and 3A4:
(§2) This assay was performed in a standard 96-well plate design. […] The incubation substrate mix contains 10 μM phenacetin (1A2), 5 μM diclofenac (2C9), 30 μM mephenytoin (2C19), 5 μM dextromethorphan (2D6) and 2 μM midazolam (3A4), 0.1 mg/mL protein human liver microsomes (BD Gentest), 1 mM NAPDH, 3.3 mM MgCl2 and 100 mM potassium phosphate buffer (pH 7.4). The production of the metabolite of each probe substrate was determined after incubation for 10 min at 37° C. Quantitation of the metabolite peak area ratio against an internal standard (tolbutamide) was determined by LC/MS/MS analysis following acetonitrile treatment of the incubations.
(§3) Samples were analyzed in the MRM mode with a SCIEX API-4000 mass spectrometer (Applied Biosystems, Foster City, Calif.), with a Shimadzu LC-20 AD pump (Shimadzu corporation, Kyoto, JP) and a CTC PAL autosampler (Agilent Technologies, Switzerland). A Phenomenex, Luna, […], 100 A, 2.00×30 mm HPLC column was used for the separation. The mobile phases were: (A) 0.1% formic acid in water and (B) 0.1% formic acid in acetonitrile. The binary gradient was as follows.
(§4) The peak area ratio of the analyte to the internal standard was used to quantify the metabolite. The values of peak area ratios in the presence of test compound were compared to those of maximum or minimum controls and were expressed as % inhibition by interpolating between the maximum and minimum peak area ratios. Incubations with no inhibitor were defined as the maxima. The following equation was used to calculate the % inhibition: [1−[(X−Low control)/(High control−Low control)]]*100 For the IC50 calculation, SigmaPlot was used to plot the mean % inhibition versus the test compound concentrations and for non-linear regression analysis of the data. Depending on the range of data points defining the inhibition curve, the data may have been fit to the 4-parameter logistic equation.
(In general: Liver microsomes are vesicles of endoplasmic reticulum, rich in cytochrome P450 enzymes.)

A further assay addresses T2, CYP1A2 (Homo sapiens, UniProt P05177).
T2 construct: 0.1 mg/mL protein human liver microsomes (BD Gentest); tissue BD Gentest; host or cells: human liver microsomes
T2 sequence (P05177 1-516): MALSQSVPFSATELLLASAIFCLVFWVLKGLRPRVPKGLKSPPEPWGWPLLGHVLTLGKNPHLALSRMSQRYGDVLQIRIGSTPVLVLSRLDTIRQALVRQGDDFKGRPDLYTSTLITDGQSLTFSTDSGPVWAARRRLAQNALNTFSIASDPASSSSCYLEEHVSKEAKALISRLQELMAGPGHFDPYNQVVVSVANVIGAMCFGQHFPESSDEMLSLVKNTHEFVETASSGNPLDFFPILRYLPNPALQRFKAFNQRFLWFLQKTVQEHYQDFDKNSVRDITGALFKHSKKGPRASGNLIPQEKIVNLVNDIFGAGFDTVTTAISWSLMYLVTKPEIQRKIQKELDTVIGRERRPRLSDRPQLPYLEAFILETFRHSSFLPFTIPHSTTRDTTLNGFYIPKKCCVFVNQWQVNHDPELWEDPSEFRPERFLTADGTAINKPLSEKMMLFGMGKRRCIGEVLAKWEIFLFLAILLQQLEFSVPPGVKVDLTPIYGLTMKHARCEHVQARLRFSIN
Description: Cocktail assay for CYPs, phenacetin O-deethylation (CYP1A2), human liver microsomes. To be noted: 10 μM phenacetin, 0.1 mg/mL human liver microsomes, 10 min at 37° C.; read-out: CYP IC50 (nM) 1A2. How it is done: as §1
(§5) This assay was performed in a standard 96-well plate design. IC50 values were calculated from the percent inhibition observed for each test compound at 6 concentrations (for example, 0.0032, 0.016, 0.08, 0.4, 2 and 10 μM). The incubation substrate mix contains 10 μM phenacetin (1A2), 5 μM diclofenac (2C9), 30 μM mephenytoin (2C19), 5 μM dextromethorphan (2D6) and 2 μM midazolam (3A4), 0.1 mg/mL protein human liver microsomes (BD Gentest), 1 mM NAPDH, 3.3 mM MgCl2 and 100 mM potassium phosphate buffer (pH 7.4). The production of the metabolite of each probe substrate was determined after incubation for 10 min at 37° C. Quantitation of the metabolite peak area ratio against an internal standard (tolbutamide) was determined by LC/MS/MS analysis following acetonitrile treatment of the incubations.
as §3, §4

A further assay deals with T3, CYP2C9 (Homo sapiens, UniProt P11712).
T3 construct: 0.1 mg/mL protein human liver microsomes (BD Gentest); tissue BD Gentest; host or cells: human liver microsomes
T3 sequence (P11712 whole entry): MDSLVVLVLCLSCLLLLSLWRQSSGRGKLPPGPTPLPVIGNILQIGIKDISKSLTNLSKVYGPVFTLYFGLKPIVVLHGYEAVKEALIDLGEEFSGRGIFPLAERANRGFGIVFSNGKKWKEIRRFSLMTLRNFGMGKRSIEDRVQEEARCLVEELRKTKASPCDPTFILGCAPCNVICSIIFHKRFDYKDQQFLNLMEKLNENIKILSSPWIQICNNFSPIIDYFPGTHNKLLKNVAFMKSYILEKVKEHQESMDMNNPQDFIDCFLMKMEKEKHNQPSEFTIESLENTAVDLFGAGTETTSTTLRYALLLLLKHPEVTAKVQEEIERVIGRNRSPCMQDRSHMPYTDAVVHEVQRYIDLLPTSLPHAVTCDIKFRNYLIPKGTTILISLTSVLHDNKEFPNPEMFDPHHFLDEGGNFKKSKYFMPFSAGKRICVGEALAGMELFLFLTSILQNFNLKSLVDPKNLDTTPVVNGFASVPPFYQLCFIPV
Description: Cocktail assay for CYPs, diclofenac 4′-hydroxylation (CYP2C9), human liver microsomes. To be noted: 5 μM diclofenac, 0.1 mg/mL human liver microsomes, 10 min at 37° C.; read-out: CYP IC50 (nM) 2C9. How it is done: as §1, §2, §3, §4

Assay [1] has as its target T4, CYP3A4 (Homo sapiens, UniProt P08684). Description: Cocktail assay for CYPs, midazolam 1′-hydroxylation (CYP3A4), human liver microsomes. To be noted: 2 μM midazolam, 0.1 mg/mL human liver microsomes, 10 min at 37° C.; read-out: CYP IC50 (nM) 3A4 (MDZ). Also on record: 0.1 mg/mL protein human liver microsomes (BD Gentest); tissue BD Gentest; host or cells: human liver microsomes. Here is the method: as §1, §5, §3, §4
Target sequence in this assay (P08684 whole entry): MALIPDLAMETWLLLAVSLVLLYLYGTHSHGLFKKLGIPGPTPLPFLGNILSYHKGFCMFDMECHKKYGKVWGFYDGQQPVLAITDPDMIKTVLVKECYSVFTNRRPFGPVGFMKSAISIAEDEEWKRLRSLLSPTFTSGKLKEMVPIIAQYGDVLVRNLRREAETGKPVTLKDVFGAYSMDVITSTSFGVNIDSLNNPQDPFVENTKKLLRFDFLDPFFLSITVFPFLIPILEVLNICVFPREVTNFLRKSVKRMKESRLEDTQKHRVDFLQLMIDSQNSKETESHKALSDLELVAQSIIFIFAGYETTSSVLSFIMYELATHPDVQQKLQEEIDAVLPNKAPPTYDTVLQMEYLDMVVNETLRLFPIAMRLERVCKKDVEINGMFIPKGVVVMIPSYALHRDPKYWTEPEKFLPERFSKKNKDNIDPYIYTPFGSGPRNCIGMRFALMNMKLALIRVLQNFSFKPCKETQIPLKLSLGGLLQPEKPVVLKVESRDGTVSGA

For assay [2], the target named is T4, CYP3A4. As to the kind of experiment: IC50 vs CYP3A by inhibition of lopinavir metabolism in human liver microsomes. To be noted: 1.5 μM lopinavir, 0.01 mg/mL human liver microsomes, 8 min at 37° C.; read-out: CYP IC50 (nM) 3A4 (LPV). Set-up: 0.01 mg/mL protein human liver microsomes (BD Gentest); tissue BD Gentest; host or cells: human liver microsomes. How it is done: Determination of IC50 vs CYP3A by Measurement of Inhibition of Lopinavir Metabolism
This assay was performed in a standard 96-well plate design. IC50 values were calculated from the percent inhibition observed for each test compound at 6 concentrations (for example, 0.098, 0.391, 1.56, 6.25, 25 and 100 nM). The incubation substrate mix contains 1.5 μM lopinavir, 0.01 mg/mL protein human liver microsomes (BD Gentest), 1 mM NAPDH, 3.3 mM MgCl2 and 100 mM potassium phosphate buffer (pH 7.4). The production of the sum of three hydroxylated metabolites (M2: 6-hydroxy lopinavir, M3: 4-hydroxy lopinavir, M4: 4-hydroxy lopinavir (epimer of M3), Kumar et al., 1999) was determined after incubation for 8 min at 37° C. Quantitation of the metabolite peak area ratio against an internal standard (tolbutamide) was determined by LC/MS/MS analysis following acetonitrile treatment of the incubations.
Samples were analyzed in the MRM mode with a SCIEX API-4000 mass spectrometer (Applied Biosystems, Foster City, Calif.), with a Shimadzu LC-20 AD pump (Shimadzu corporation, Kyoto, JP) and a CTC PAL autosampler (Agilent Technologies, Switzerland). A Phenomenex, Luna, 5 μm, 100 A, 2.00×30 mm HPLC column was used for the separation. The mobile phases were: (A) 0.1% formic acid in water and (B) 0.1% formic acid in acetonitrile. The binary gradient was as follows.
The peak area ratio of the analyte to the internal standard was used to quantify the metabolite. The values of peak area ratios in the presence of test compound were compared to those of maximum or minimum controls and were expressed as % inhibition by interpolating between the maximum and minimum peak area ratios. Incubations with no inhibitor were defined as the maxima and with 5 μM ketoconazole were defined as the minima.
The following equation was used to calculate the % inhibition: [1−[(X−Low control)/(High control−Low control)]]*100
For the IC50 calculation, SigmaPlot was used to plot the mean % inhibition versus the test compound concentrations and for non-linear regression analysis of the data. Depending on the range of data points defining the inhibition curve, the data may have been fit to the 4-parameter logistic equation.
Target sequence in this assay (P08684 2-503): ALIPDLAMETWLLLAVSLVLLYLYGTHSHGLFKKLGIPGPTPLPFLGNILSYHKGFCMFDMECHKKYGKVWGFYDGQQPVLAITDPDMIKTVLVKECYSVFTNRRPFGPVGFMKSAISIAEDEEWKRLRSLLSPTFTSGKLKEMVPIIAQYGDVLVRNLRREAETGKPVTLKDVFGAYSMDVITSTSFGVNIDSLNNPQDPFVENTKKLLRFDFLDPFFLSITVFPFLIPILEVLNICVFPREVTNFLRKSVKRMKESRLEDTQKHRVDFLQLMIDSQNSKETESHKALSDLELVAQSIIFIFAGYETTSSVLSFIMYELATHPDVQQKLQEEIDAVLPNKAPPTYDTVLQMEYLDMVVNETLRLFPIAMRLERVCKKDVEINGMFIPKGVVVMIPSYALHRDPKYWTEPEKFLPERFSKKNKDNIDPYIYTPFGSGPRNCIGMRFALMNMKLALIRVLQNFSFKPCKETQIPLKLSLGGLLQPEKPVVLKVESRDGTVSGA

In another assay the target is T5, CYP2D6 (Homo sapiens, UniProt P10635).
T5 construct: 0.1 mg/mL protein human liver microsomes (BD Gentest); tissue BD Gentest; host or cells: human liver microsomes
T5 sequence (P10635 whole entry): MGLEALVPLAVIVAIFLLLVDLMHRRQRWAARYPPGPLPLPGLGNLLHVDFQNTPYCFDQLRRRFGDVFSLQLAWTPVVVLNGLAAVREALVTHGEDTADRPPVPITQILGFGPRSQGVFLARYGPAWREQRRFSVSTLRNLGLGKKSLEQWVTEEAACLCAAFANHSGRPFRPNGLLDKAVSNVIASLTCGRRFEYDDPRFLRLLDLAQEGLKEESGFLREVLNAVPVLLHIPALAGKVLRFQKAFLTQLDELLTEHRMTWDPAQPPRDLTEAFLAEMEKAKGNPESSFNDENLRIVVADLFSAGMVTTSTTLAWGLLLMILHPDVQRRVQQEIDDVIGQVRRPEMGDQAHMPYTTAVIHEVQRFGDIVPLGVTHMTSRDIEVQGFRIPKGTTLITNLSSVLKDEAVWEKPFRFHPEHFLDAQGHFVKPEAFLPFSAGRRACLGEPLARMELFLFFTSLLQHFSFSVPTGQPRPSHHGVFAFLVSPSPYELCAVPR
Description: Cocktail assay for CYPs, dextromethorphan O-demethylation (CYP2D6), human liver microsomes. The following applies: 5 μM dextromethorphan, 0.1 mg/mL human liver microsomes, 10 min at 37° C.; read-out: CYP IC50 (nM) 2D6. How it is done:
as §1, §5, §3, §4

T1 sequence (P33261 whole entry): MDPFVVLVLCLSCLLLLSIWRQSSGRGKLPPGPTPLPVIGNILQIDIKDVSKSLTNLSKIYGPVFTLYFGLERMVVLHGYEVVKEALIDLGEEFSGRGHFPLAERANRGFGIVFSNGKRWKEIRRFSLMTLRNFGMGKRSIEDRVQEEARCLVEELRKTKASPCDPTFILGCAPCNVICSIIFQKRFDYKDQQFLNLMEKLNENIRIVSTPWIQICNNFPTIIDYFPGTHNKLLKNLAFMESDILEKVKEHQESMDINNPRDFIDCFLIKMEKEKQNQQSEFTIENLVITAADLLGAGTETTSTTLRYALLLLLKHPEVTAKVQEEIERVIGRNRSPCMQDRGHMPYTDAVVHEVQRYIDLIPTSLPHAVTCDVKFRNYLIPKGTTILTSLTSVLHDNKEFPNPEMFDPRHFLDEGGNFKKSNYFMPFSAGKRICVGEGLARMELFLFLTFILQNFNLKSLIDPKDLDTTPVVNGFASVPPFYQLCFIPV

Turning to `O=S(=O)(c1ccc(N2CCC(O)CC2)nc1)N1CCCC1c1ccccc1-c1cncn1CCc1ccc(F)cc1` (single isomer, unassigned) [Compound 33, (R or S)-1-(5-((2-(2-(1-(4-fluorophenethyl)-1H-imidazol-5-yl)phenyl)pyrrolidin-1-yl)sulfonyl)pyridin-2-yl) piperidin-4-ol], the IC50 – broadly, the point on the concentration scale where inhibition reaches its midpoint – is above 10000 nM at CYP2C19; above 10000 nM at CYP1A2; 2890 nM at CYP2C9; 22.5 nM on CYP3A4 [1]; 12.6 nM at CYP3A4 [2]; 6500 nM on CYP2D6.

As to `CN1CCN(c2ncc(S(=O)(=O)N3CCCC3c3ccc(-c4cncn4CCc4ccc(F)cc4)cc3)s2)CC1` (stereo not drawn) [Compound 9, 5-((2-(4-(1-(4-fluorophenethyl)-1H-imidazol-5-yl)phenyl)pyrrolidin-1-yl)sulfonyl)-2-(4-methylpiperazin-1-yl)thiazole], the IC50 on CYP2C19 is 148 nM; at CYP1A2, above 10000 nM; at CYP2C9, 684 nM; at CYP3A4 [1], 9 nM; at CYP3A4 [2], 2.4 nM; on CYP2D6, 2100 nM.

As to `CS(=O)(=O)N1CCCC1c1ccccc1-c1cncn1CCc1ccc(F)cc1` (single isomer, unassigned) [Compound 23b, (R or S)-1-(4-fluorophenethyl)-5-(2-(1-(methylsulfonyl)pyrrolidin-2-yl)phenyl)-1H-imidazole], the IC50 is above 10000 nM at CYP2C19; above 10000 nM at CYP1A2; above 10000 nM on CYP2C9; 17 nM at CYP3A4 [1]; 17.2 nM at CYP3A4 [2]; above 10000 nM on CYP2D6.

In the case of `CC(=O)Nc1ncc(S(=O)(=O)N2CCCC2c2ccccc2-c2cncn2C)s1` (stereo not drawn) [Compound 30, N-(5-((2-(2-(1-methyl-1H-imidazol-5-yl)phenyl)pyrrolidin-1-yl)sulfonyl)thiazol-2-yl) acetamide], the IC50 is above 10000 nM on CYP2C19; above 10000 nM at CYP1A2; above 10000 nM at CYP2C9; 18.8 nM on CYP3A4 [1]; 37.7 nM on CYP3A4 [2]; above 10000 nM on CYP2D6.

On to `C[C@H](c1ccc(F)cc1)n1cncc1-c1ccc2c(c1)CN(S(=O)(=O)c1cnc(N)s1)CC2` [Compound 2, (R)-5-((7-(1-(1-(4-fluorophenyl)ethyl)-1H-imidazol-5-yl)-3,4-dihydroisoquinolin-2(1H)-yl)sulfonyl)thiazol-2-amine], for which the IC50 is 121 nM at CYP2C19; 2610 nM at CYP1A2; 505 nM at CYP2C9; 39 nM at CYP3A4 [1]; 17 nM on CYP3A4 [2]; 288 nM at CYP2D6.

As for `CS(=O)(=O)N1CCCC1c1ccccc1-c1cncn1CCc1ccc(F)cc1` (single isomer, unassigned) [Compound 23a, (R or S)-1-(4-fluorophenethyl)-5-(2-(1-(methylsulfonyl)pyrrolidin-2-yl)phenyl)-1H-imidazole], the IC50 was 6920 nM at CYP2C19; above 10000 nM at CYP1A2; above 10000 nM on CYP2C9; 36.4 nM at CYP3A4 [1]; 58.5 nM on CYP3A4 [2]; 6720 nM on CYP2D6.

In the case of `O=C(C1CC1)N1CCCC1c1cccc(-c2cncn2CCc2ccc(F)cc2)c1` (stereo not drawn) [Compound 47, cyclopropyl(2-(3-(1-(4-fluorophenethyl)-1H-imidazol-5-yl)phenyl)pyrrolidin-1-yl)methanone], the IC50 is 1010 nM at CYP2C19; 2080 nM at CYP1A2; 2330 nM on CYP2C9; 14.9 nM at CYP3A4 [1]; 16.7 nM at CYP3A4 [2]; 2500 nM on CYP2D6.

For `O=S(=O)(c1cnc(N2CCN3C[C@H](O)C[C@H]3C2)s1)N1CCCC1c1ccccc1-c1cncn1CCc1ccc(F)cc1` (single isomer, unassigned) [Compound 22b, (7R,8aS)-2-(5-(((R or S)-2-(2-(1-(4-fluoro-phenethyl)-1H-imidazol-5-yl)phenyl)pyrrolidin-1-yl)sulfonyl)thiazol-2-yl) octahydro-pyrrolo[1,2-a] pyrazin-7-ol], the IC50 is above 10000 nM at CYP2C19; above 10000 nM at CYP1A2; 1690 nM at CYP2C9; 9.6 nM on CYP3A4 [1]; 4.5 nM on CYP3A4 [2]; 4620 nM on CYP2D6.

For `O=S(=O)(c1ccc(N2CCC(O)CC2)nc1)N1CCCC1c1cccc(-c2cncn2CCc2ccc(F)cc2)c1` (single isomer, unassigned) [Compound 57b, (R or S)-1-(5-((2-(3-(1-(4-fluorophenethyl)-1H-imidazol-5-yl)phenyl)pyrrolidin-1-yl)sulfonyl)pyridin-2-yl) piperidin-4-ol], the IC50 at CYP2C19 was found to be 393 nM; on CYP1A2 it was 190 nM; on CYP2C9, 209 nM; on CYP3A4 [1] it was 4.52 nM; at CYP3A4 [2], 1.4 nM; at CYP2D6, 2230 nM.
